Reference: ChEMBL document CHEMBL1201862, “PubChem BioAssay data set” (2004)
Calls of active or inactive are those of the source.

How the values were obtained:
[1] = reduction of Shn3 3'UTR-driven luciferase in osteoblasts – cell-based, Clone20 osteoblasts, firefly luciferase, cherry-picked, dose response (AID 624132); assay type: functional;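 also: firefly luciferase luminescence from reporter carrying the Shn3 3'UTR in osteoblasts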
[2] = loss of viability in HepG2 cells – cell-based, CellTiter-Glo, cherry-picked, cytotoxicity control for Shn3 inhibitor project, dose response (AID 624134); assay type: functional
[3] = non-specific 3'UTR reporter inhibition in Clone20-Shn3RL – cell-based, Renilla luciferase, cherry-picked, counter-screen for Shn3 inhibitor project, dose response (AID 624133); assay type: functional
H9c2 = experiment: cells; assay type: functional, cell-based; details: Rattus norvegicus, H9c2, Myocardium;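 also: confirmatory concentration-response retest of ultra-high-throughput screening hits for modulation of myocardial damage; cell death induced by hydrogen peroxide oxidative stress; compound pretreatment for 60 min then peroxide exposure for 2 h; potency is for protecting the cells against peroxide damage rather than for killing them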
[4] = microbe, parasite or virus in culture; assay type: functional; details: Mycobacterium tuberculosis
[5] = molecular target: T1, Calpain-2 catalytic subunit (Sus scrofa, UniProt P43367); experiment: m-calpain protease blockers, concentration series – biochemical, fluorogenic peptide substrate, dose response (AID 1420); assay type: functional
T1 sequence (P43367 whole entry): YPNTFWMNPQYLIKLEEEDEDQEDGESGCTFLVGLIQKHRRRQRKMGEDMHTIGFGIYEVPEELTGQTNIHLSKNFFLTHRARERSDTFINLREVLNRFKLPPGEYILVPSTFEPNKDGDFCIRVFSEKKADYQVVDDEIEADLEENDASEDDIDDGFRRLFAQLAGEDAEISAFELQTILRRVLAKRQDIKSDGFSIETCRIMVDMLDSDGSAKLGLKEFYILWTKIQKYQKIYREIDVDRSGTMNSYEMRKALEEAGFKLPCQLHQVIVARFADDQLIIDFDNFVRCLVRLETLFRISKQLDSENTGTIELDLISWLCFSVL

cells [6] = assay type: functional
[7] = Luminescence Cell-Based Dose Response HTS to Identify Activators of Luciferase Translation or Activity in H4 […] Cells. [Related pubchem assays: 1829 (Project Summary), 1814 (Primary HTS)]; assay type: functional
Large T antigen = Large T antigen (Simian virus 40, UniProt P03070); assay type: functional, Betapolyomavirus macacae;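 also: Confirmatory-stage PubChem screen for compounds that inhibit SV40 T antigen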
[8] = Luminescence Cell-Based Dose Retest to Confirm Inhibitors of Cancer Stem Cells. [Related pubchem assays (depositor defined):AID2717, AID2721]; assay type: functional; details: Homo sapiens
[9] = NIH3T3 cell viability loss – ATP luminescence, mouse fibroblasts, counter-screen, dose response (AID 2010); assay type: functional, cell-based;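 also: cells exposed to compound for about 90 hours before reading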
[10] = Trypanosoma cruzi growth suppression in host cells – NIH3T3 host cells, beta-gal luminescence, confirmation (AID 2044); assay type: functional, cell-based;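 also: intracellular parasites grown in NIH/3T3 mouse fibroblasts as host cells; luminescent beta-galactosidase reporter signal from transgenic T. cruzi replicating inside host cells; inhibitors lower the luminescence signal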
cells [11] = experiment: cells
H4 = experiment: Luminescence Cell-Based Dose Response HTS to Identify Activators of 5'UTR Stem-Loop Driven Prion Protein mRNA Translation in H4 Neuroglioblastoma Cells. [Related pubchem assays: 1829 (Project Summary), 1814 (Primary HTS)]; assay type: functional; details: Homo sapiens
[12] = molecular target: T2, Heat shock factor protein 1 (Mus musculus, UniProt P38532); experiment: decrease of HSF1-responsive luciferase luminescence – cell-based, NIH3T3, dose retest, confirmation (AID 2382); assay type: functional;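 also: NIH3T3 fibroblasts with HSF1-driven luciferase reporter stressed by proteasome inhibitor MG132; luminescence from HSF1-driven luciferase expression after 8 hours of MG132 stress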
T2 sequence (P38532 whole entry): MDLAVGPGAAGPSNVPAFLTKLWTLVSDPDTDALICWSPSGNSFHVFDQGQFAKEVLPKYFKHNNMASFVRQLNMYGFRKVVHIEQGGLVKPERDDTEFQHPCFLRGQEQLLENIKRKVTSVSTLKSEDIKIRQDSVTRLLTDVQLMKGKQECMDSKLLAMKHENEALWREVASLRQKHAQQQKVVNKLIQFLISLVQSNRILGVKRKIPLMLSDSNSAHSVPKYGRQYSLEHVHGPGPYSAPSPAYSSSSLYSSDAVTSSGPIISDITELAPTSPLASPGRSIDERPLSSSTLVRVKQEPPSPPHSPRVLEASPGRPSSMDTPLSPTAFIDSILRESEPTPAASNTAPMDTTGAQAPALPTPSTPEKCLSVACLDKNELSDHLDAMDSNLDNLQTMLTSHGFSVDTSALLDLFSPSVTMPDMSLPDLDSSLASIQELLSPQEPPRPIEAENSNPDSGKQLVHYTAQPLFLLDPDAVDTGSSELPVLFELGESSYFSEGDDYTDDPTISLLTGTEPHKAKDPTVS

cells [13] = assay type: functional, cell-based
cells [14] = assay type: functional, cell-based; remark: listed apart in the source
[15] = THP-1 cell cytotoxicity, dose response, cytotoxicity control for non-replicating M. tuberculosis project (AID 489025); assay type: functional
[16] = fluconazole-exposed Candida albicans growth modulators – fluorescence, retest, confirmation (AID 2467); assay type: functional, cell-based
[17] = NIH-3T3 fibroblast cytotoxicity, dose response, cytotoxicity control, cell-based, fluorescence, Alamar Blue, secondary assay (AID 2327); assay type: functional;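 also: NIH-3T3 mouse fibroblasts cultured with fluconazole at 8 µg/mL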
[18] = molecular target: T3, Rac GTPase-activating protein 1 (Homo sapiens, UniProt Q9H0H5); experiment: blockers of MgcRacGAP-driven Rac1 GTP hydrolysis – biochemical, ADP Hunter fluorescence, primary and confirmatory, confirmation (AID 624330); assay type: functional
T3 sequence (Q9H0H5 whole entry): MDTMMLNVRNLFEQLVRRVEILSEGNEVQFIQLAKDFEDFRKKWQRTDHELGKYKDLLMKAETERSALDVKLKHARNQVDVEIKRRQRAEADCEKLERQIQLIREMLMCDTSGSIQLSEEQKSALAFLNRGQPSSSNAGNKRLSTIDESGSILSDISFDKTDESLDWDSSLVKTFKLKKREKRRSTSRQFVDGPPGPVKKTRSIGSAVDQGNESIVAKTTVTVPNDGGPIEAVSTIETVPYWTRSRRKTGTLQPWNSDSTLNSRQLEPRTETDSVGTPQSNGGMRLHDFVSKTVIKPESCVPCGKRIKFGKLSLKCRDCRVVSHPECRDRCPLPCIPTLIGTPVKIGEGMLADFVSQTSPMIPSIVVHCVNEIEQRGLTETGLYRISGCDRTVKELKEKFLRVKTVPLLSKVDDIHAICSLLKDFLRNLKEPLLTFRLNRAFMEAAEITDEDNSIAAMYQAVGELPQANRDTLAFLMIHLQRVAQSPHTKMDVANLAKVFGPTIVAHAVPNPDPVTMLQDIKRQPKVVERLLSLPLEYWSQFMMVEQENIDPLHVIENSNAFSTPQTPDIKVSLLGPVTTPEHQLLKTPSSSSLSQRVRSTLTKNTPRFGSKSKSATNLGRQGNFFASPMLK

Chain of Large T antigen (P03070 whole entry): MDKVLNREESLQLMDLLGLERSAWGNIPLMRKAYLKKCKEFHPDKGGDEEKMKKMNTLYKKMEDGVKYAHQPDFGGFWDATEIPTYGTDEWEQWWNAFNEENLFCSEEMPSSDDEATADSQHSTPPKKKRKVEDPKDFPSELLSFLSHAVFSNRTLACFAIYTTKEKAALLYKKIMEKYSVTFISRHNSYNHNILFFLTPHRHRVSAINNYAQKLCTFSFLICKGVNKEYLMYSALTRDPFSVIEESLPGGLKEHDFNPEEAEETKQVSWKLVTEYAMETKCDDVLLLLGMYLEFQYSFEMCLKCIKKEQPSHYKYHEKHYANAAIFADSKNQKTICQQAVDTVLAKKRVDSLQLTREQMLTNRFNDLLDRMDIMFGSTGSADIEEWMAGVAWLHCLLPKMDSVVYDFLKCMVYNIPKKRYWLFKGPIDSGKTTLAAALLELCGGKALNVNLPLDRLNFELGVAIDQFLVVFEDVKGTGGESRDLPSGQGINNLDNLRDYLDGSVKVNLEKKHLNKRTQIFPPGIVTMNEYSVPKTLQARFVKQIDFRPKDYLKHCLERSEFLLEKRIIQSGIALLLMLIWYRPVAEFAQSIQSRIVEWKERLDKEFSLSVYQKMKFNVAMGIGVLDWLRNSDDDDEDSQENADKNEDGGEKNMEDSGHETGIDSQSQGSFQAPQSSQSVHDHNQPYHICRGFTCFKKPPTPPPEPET

With `CN(c1ccccc1)S(=O)(=O)c1cc(C(=O)OCC(=O)N2CCN(C(=O)c3ccco3)CC2)ccc1Cl` the AC50 [1] was 62.9 µM (active), the AC50 [2] was > 70 µM (inactive) and the AC50 [3] was 30.6 µM (active).
In the case of `CC(OC(=O)Cc1nnc(O)c2ccccc12)C(=O)Nc1ccc(F)cc1Cl` (configuration not stated), the IC50 (H9c2) was 15.4 µM (active).
With `Cn1c(=O)c2c3c(sc2n2c(SCC(N)=O)nnc12)CC(C(C)(C)C)CC3` (configuration not stated) the CC50 [4] was > 40 µM (active) and the IC50 [5] was 42.9 µM (not active).
With `CNS(=O)(=O)c1cc2c3c(cccc3c1)C(=O)NC2=O` the IC50 (H9c2) was 16.9 µM (active).
With `Cc1ccc2[nH]c(C)c(CCNC(=O)c3cc4cc([N+](=O)[O-])ccc4oc3=O)c2c1` the CC50 [4] was > 40 µM (active) and the IC50 (cells [6]) was 4.92 µM (active).
For `CC(C)c1ccc(NC(=O)NC2CCCCC2)cc1`, the EC50 [7] was 0.114 µM (active).
With `C=CC(=O)Oc1ccc(N2Cc3ccccc3C2=O)cc1` the IC50 (Large T antigen) was 4.45 µM (active).
With `CCn1cnc2cc(NCc3cccc(OC)c3O)ccc21` the IC50 (Large T antigen) was 13.3 µM (active).
With `COc1ccccc1CN=C(S)Nc1ccc2nc(N3CCN(C)CC3)cc(C)c2c1` the AC50 [8] was 0.168 µM (active), the EC50 [9] was > 60 µM (not active) and the EC50 [10] was < 0.1 µM (active). The EC50 (cells [11]) was 0.129 µM (active).
For `Cn1c(C(=O)NCC2CCCO2)cc2oc3ccccc3c21` (configuration not stated), the EC50 [7] was 0.289 µM (active) and the EC50 (H4) was 47 µM (active).
With `CCc1ccc2nc(N(CCN(C)C)C(=O)c3ccc4ncsc4c3)sc2c1` the EC50 [9] was > 60 µM (not active), the EC50 [10] was < 0.1 µM (active) and the EC50 (cells [11]) was 0.088 µM (active).
In the case of `CCCCNS(=O)(=O)c1ccc(S(=O)(=O)NCc2ccncc2)cc1`, the AC50 [1] was 2.4 µM (active), the AC50 [2] was 6.47 µM (active) and the AC50 [3] was 23 µM (active).
In the case of `O=C(CC(Sc1ccc(Br)cc1)C(=O)O)c1ccc(Br)cc1` (configuration not stated), the IC50 (Large T antigen) was 49.4 µM (active).
With `CCOc1ccc(CN2CCCC(N3CCN(c4ccc(OC)cc4)CC3)C2)cc1` (configuration not stated) the EC50 [9] was > 60 µM (not active), the EC50 [10] was < 0.1 µM (active) and the EC50 (cells [11]) was 0.042 µM (active).
In the case of `CCOC(=O)C1CCCN(C(=O)CCC(=O)Nc2ccc3nc(N4CCOCC4)cc(C)c3c2)C1` (configuration not stated), the IC50 (H9c2) was > 79 µM (inactive).
With `N#CSCC(=O)N1c2ccccc2CCc2ccccc21` the IC50 (Large T antigen) was 22 µM (active).
With `Cc1ccc(NC(=O)c2ccc(Nc3c([N+](=O)[O-])cc([N+](=O)[O-])cc3[N+](=O)[O-])cc2)cc1` the EC50 [9] was 15.8 µM (active), the EC50 [12] was 8.29 µM (active) and the EC50 [10] was < 0.1 µM (active). The EC50 (cells [11]) was 0.071 µM (active).
In the case of `O=C(NCCc1ccccc1)c1cc2sccc2n1Cc1ccccc1`, the EC50 (cells [13]) was > 350 µM (not active) and the EC50 (cells [14]) was > 350 µM (not active).
With `O=C(CN1CCN(c2ccccc2O)CC1)Nc1ccccc1C(=O)NCCc1ccccc1` the CC50 [4] was > 40 µM (active).
With `COc1ccc(/C=C2/CCc3ccccc3C2=O)cc1CN1CCOCC1` the EC50 [9] was > 60 µM (not active), the EC50 [10] was < 0.1 µM (active) and the EC50 (cells [11]) was 0.245 µM (active).
In the case of `Cc1ccc2sc(N(CCCN(C)C)C(=O)c3ccc(S(=O)(=O)N4CCOCC4)cc3)nc2c1C`, the EC50 [9] was > 60 µM (not active), the EC50 [10] was < 0.1 µM (active) and the EC50 (cells [11]) was 0.408 µM (active).
For `COc1ccc(-c2nnn(CC(=O)OC3CCCCC3)n2)cc1OC`, the CC50 [15] was > 40 µM (active) and the IC50 (cells [6]) was 11.6 µM (active).
With `Cc1cc(NC(=O)C23CC4CC(C2)CC(n2cnc([N+](=O)[O-])n2)(C4)C3)no1` the EC50 [9] was > 30 µM (not active), the EC50 [10] was < 0.1 µM (active) and the EC50 (cells [11]) was 0.089 µM (active).
In the case of `O=C(Nc1cccc(-c2nc3ccccc3s2)c1)c1cc(-n2cnnc2)ccc1Cl`, the EC50 [16] was 2.98 µM (active), the CC50 [4] was > 40 µM (active) and the EC50 [17] was 20.3 µM (inconclusive).
In the case of `CC(C)(C)NC(=O)C(c1c[nH]c2ccccc12)N(C(=O)Cn1nnc(-c2ccc(F)cc2)n1)c1cccc(O)c1` (configuration not stated), the CC50 [4] was > 40 µM (active).
For `Cc1ccc(S(=O)(=O)N2CCc3ccccc3CC2)cc1`, the AC50 [1] was 3.29 µM (active), the AC50 [2] was 44.8 µM (active) and the AC50 [3] was 3.03 µM (active).
For `Cc1ccc(NC(=O)CCCc2nc(O)c3ccccc3n2)c(Cl)c1`, the IC50 (H9c2) was 25.1 µM (active).
With `O=C(CCc1nc(O)c2ccccc2n1)NNC(=O)c1ccc(F)cc1` the IC50 (H9c2) was > 79 µM (inactive).
In the case of `O=C(N/N=C/c1ccccn1)c1[nH]c2ccc([N+](=O)[O-])cc2c1-c1ccccc1`, the IC50 (H9c2) was > 79 µM (inactive).
With `Cc1ccc(C(=O)C=CNNC(=O)c2ccccc2)cc1` the CC50 [15] was > 40 µM (active).
In the case of `Cc1cccc(COc2ccccc2/C=N/Nc2ccc([N+](=O)[O-])cc2)c1`, the EC50 [16] was > 38 µM (not active), the CC50 [4] was > 40 µM (active) and the EC50 [17] was > 150 µM (inactive).
For `CO/C(O)=C(/C=N/c1ccc(O)cc1)[N+](=O)[O-]`, the IC50 (Large T antigen) was 62.1 µM (active) and the IC50 [18] was 25.5 µM (active).
With `Cc1nn(-c2ccccc2)c(/N=C/c2ccccc2O)c1-c1ccccc1` the EC50 [7] was 45.7 µM (active) and the EC50 (H4) was 48.4 µM (active).
In the case of `O=C(CC12CC3CC(CC(C3)C1)C2)N/N=C/c1ccc([N+](=O)[O-])o1`, the EC50 [9] was > 60 µM (not active), the EC50 [10] was < 0.1 µM (active) and the EC50 (cells [11]) was 0.019 µM (active).
With `C/C(=N\NC(=O)CSc1nc2ccccc2o1)c1ccc(O)cc1` the IC50 (Large T antigen) was 18.9 µM (active) and the IC50 [18] was 86.9 µM (active).
For `O=C(N/N=C/c1ccc(O)c(O)c1)c1cc(-c2ccccc2)nc2ccccc12`, the IC50 (Large T antigen) was 54.1 µM (active).
